From US8324280B2, “Treatment of prostate cancer with DDC inhibitor” (The University of British Columbia, priority 2008, dated 2012)

Experiments:
C4-2 cells = experiment: MTS cell proliferation assay, androgen-independent C4-2 cells; format: cell-based, human; conditions: 10 μM, 6 days
Protocol: Cell proliferation assays were performed using the 3-(4,5-dimethylhiazol-2-yl)-5-(3-carboxymethoxyphenyl)-2-(4-sulfophenyl)-2H-tetrazolium Assay (MTS) according to the manufacturer's protocol, with minor modifications (Promega). C4-2 cells were plated in 96-well plates at a density of 750 cells per well in RPMI medium containing 5% CSS for 1 day. On the following day, the DDC inhibitors, carbidopa (25 μM) and NSD-1015 (10 μM)±0.1 nM R1881 were added to each well in charcoal-stripped serum (CSS; Hyclone, VWR) RPMI media. The cells were harvested at days 0, 2, 4, and 6, with a medium change every 3 days. Each time point was measured with 6 replicates.
(§1) Student's t-test (two-sample equal variance) was used to evaluate statistically significant differences. All calculated p-values were two-sided and those less than 0.05 were considered statistically significant.

DDC [1] = target: T1, DDC (Rattus norvegicus, UniProt P14173); experiment: Dopamine ELISA on conditioned medium of PC12 cells; format: cell-based; conditions: 1 μM NSD-1015, 24 hours
T1 construct: PC12 cells were not transfected or treated with R1881 but were incubated 24 hours with or without NSD-1015; endogenous in cells; host or cells: PC12 rat adrenal pheochromocytoma cells
T1 sequence (P14173 1-480): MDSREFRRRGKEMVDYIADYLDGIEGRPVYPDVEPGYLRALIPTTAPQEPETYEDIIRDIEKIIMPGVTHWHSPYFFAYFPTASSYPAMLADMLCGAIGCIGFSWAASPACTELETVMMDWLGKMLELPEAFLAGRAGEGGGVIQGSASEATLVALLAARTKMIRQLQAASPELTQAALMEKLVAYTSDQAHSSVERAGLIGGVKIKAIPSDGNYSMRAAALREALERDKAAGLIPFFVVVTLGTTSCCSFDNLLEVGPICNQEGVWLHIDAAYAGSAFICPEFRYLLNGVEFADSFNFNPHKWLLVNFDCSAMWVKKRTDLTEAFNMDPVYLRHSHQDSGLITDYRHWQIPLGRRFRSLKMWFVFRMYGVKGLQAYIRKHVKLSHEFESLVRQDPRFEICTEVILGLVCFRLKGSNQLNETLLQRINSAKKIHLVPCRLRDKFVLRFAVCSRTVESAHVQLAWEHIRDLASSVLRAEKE
Protocol: (§2) PC3 cells were seeded in 12-well plates at a density of 1.5×10^5 cells/well and transfected the following day with pcDNA3.1-AR and pDEST12.2-DDC or pDEST12.2 empty vector control, as described above for transactivation assays. The next day, media was changed to 5% DCC-FBS containing 1 nM R1881. Conditioned culture media was removed 24 hours later and stored at −80° C. A 100 μL volume of media was used for the competitive enzyme-linked immunosorbent assay (ELISA). Dopamine was assayed using the Dopamine Research Enzyme Immunoassay kit (Rocky Mountain Diagnostics) following the manufacturer's instructions. PC12 cells, used as a positive control, were grown to 70% confluency (12-well plates) and conditioned media was collected 24 hours later for assay, as above. Secreted DA levels from PC3 and PC12 cells were determined in the presence and absence of 1 μM NSD-1015 (3-hydroxybenzylhydrazine) DDC enzymatic inhibitor (Sigma). All ELISAs were performed in triplicate with two independent trials.

DDC [2] = target: T2, DDC (Homo sapiens, UniProt P20711); experiment: Dopamine ELISA on conditioned medium of PC3 cells overexpressing DDC; format: cell-based; conditions: 1 μM NSD-1015, 24 hours, 1 nM R1881
T2 construct: expressed in transfected cells; host or cells: PC3 cells, co-transfected with pcDNA3.1-AR
T2 sequence (P20711 1-480): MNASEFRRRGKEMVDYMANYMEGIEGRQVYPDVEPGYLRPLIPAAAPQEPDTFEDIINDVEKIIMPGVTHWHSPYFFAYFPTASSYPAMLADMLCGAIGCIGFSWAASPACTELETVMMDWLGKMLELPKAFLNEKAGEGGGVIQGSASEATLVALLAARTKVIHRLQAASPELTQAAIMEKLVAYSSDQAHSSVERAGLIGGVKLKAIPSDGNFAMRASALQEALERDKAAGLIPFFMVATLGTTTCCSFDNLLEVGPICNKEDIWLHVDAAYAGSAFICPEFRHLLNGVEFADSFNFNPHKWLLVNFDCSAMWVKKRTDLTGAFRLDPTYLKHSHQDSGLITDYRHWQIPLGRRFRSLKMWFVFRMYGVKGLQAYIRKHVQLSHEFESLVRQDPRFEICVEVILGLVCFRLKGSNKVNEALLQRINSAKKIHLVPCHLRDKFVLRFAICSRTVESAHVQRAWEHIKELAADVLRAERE
Protocol: as §2

LNCaP cells [3] = experiment: MTS cell proliferation assay, androgen-dependent LNCaP cells; format: cell-based, human; conditions: 10 μM, 8 days
Protocol: Cell proliferation assays were performed using the 3-(4,5-dimethylhiazol-2-yl)-5-(3-carboxymethoxyphenyl)-2-(4-sulfophenyl)-2H-tetrazolium Assay (MTS) according to the manufacturer's protocol, with minor modifications (Promega). LNCaP cells were plated in 96-well plates at a density of 3000 cells per well and incubated in RPMI medium containing 5% CSS for one day. On the following day, the DDC inhibitors, carbidopa (25 and 50 μM) and NSD-1015 (10 μM)±0.1 nM R1881 were added to each well in charcoal-stripped serum (CSS; Hyclone, VWR) RPMI media. The cells were harvested at days 0, 2, 4, 6 and 8, with a medium change every 3 days. Each time point was measured with 6 replicates.
as §1

AR [4] = experiment: AR transactivation assay (pARR3-tk-Luc) in LNCaP cells; format: cell-based, human; conditions: endogenous AR, 24 hours
Description: (§3) PC3 and LNCaP cells were transfected, treated with R1881 and used for luciferase assays, as described previously. Briefly, human AR expression plasmid (pcDNA3.1-hAR) and AR-regulated luciferase reporters, pARR3-tk-Luc or pPSA-630 bp-Luc (−630/+12 bp of the 5′ PSA flanking region) {Snoek, 1998 #136}, were cotransfected into cells, along with DDC expression plasmid (pDEST12.2-DDC) or control empty vector (pDEST12.2). Firefly luciferase values were normalized to renilla luciferase (PRL-TK reporter; Promega Corp.) and expressed as relative luciferase units (RLU).

AR [5] = experiment: AR transactivation assay (pARR3-tk-Luc) in AR transfected PC3 cells; format: cell-based, human
Description: as §3
Transactivation assays for AR were also performed in PC3 cells treated with dopamine (DA) and serotonin (5-HT, 5-hyroxytyrptamine), which were purchased from Sigma. As described above, cells were transfected with pcDNA3.1-hAR, pRL-TK-renilla and pARR3-tk-Luc reporter but DDC was excluded. Cells were then treated with or without 1 nM R1881 and varying concentrations of pure DA or 5-HT in 5% dextran-coated charcoal stripped FBS (DCC-FBS) for 24 hours before harvest and luciferase assay.

AR [6] = experiment: Cell-based ligand binding assay in HeLa-AR cells (cytosol); design: species or system human
Protocol: HeLa-AR cells were cultured for 24-48 hours in DMEM containing 5% DCC-FBS and seeded onto 6 cm plates at a density of 1×10^6 cells/plate. After 5 hours, cells were transfected with either pDEST12.2-DDC or pDEST12.2 control vector (5 μg/plate) using Lipofectin Reagent (Invitrogen). The next day, transfection mix was changed to DMEM supplemented with 5% DCC-FBS containing increasing concentrations of [^3H]-R1881 (0-10 nM). To determine non-specific binding, hormone treatments were carried out in the presence (NSB) and absence (total binding) of excess cold 1000 nM R1881. After 24 hours of incubation with hormone, cells were harvested as described previously. […]
Cytosolic and nuclear extracts were then thawed and incubated for 6 hours with agarose beads conjugated to FLAG monoclonal antibody (Sigma, USA). […] Beads were washed with Buffer D (20 mM HEPES pH 7.9, 20% glycerol, 0.3 M KCl, 0.2 mM EDTA, 0.05% NP-40, 0.5 mM DTT, 0.5 mM PMSF) and specifically bound ligand (total binding—NSB) to the immunopreciptated FLAG-tagged AR protein was determined by measuring the levels of tritium (dpm) in bead resuspensions using a scintillation counter. All measured bound dpm values were normalized to corresponding Western blot AR protein band intensities. Results were expressed as the relative (normalized to the level of AR protein) mean bound ligand of three replicates (±SEM).

AR ligand binding domain = target: T3, AR ligand binding domain (Rattus norvegicus, UniProt P15207); experiment: In vitro hydroxylapatite pulldown ligand binding assay
T3 construct: purchased PanVera
T3 sequence (P15207 651-882 limits assumed): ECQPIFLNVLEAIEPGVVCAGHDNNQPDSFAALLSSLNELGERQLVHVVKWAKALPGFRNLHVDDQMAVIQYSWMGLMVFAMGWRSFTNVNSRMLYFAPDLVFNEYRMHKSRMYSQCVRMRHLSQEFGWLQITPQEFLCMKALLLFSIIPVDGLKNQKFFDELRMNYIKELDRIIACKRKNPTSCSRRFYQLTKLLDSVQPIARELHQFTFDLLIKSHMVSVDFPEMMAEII
Protocol: Recombinant rat thioredoxin-fused AR ligand binding domain (PanVera, 1.390 mg/mL, 48.4 kDa), which is identical to the human AR-LBD, was used for hydroxylapatite (HAP) pulldown ligand binding assays at R1881 concentrations of 0 to 1000 nM {Portigal, 2002 #86}. Initially, his-tagged-DDC protein was expressed in BL21-SI bacteria, containing the pDEST17-His-DDC plasmid, and purified using a nickel-nitrilotriacetic acid (Ni-NTA)-agarose column according to the manufacturer's protocol (Qiagen). Purified AR-LBD was diluted to a final concentration of 1 μg/mL in binding buffer (50 mM Tris pH 7.5, 10% glycerol, 0.8 M NaCl, 1 mg/mL BSA and 2 mM dithiothreitol), containing tracer 20 nM [^3H]-R1881 (NEN Life Science Products, 75.2 Ci/mmol, 1 mCi/mL). In order to minimize the use of radioactive ligand, supplemental cold R1881 was added to the assay mix to achieve the high 100 nM and 1000 nM total R1881 concentrations. Assays were carried out in the absence and presence of 0.5 μg of His-DDC protein, which was added directly to the 1 mL assay mix. Following overnight incubation at 4° C., a 50% HAP slurry (Calbiochem Fast Flow hydroxylapatite in […] pH 8.0 and 1 mM EDTA) was added to the assay, pellets were incubated on ice for 10 minutes, and then washed four times with wash buffer (40 mM Tris pH 7.5, 100 mM KCl, 1 mM EDTA and 1 mM EGTA). HAP pellets were resuspended in ethanol and bound [^3H]-R1881 was measured (disintegrations per minute, dpm) using a Beckman LS 6500 scintillation counter.
To determine non-specific binding (NSB) to the HAP matrix, control pulldown assays were carried out using an assay mix that lacked AR-LBD. […] NSB values were subtracted from sample measurements for determination of specific binding. The total dpm per assay was determined by measuring a known amount of [^3H]-R1881 and normalizing to the total assay volume (1 mL). All assays were carried out in triplicate and the pmole bound [^3H]-R1881/mg AR-LBD protein was calculated by using the measured dpm of tracer 20 nM [^3H]-R1881. Calculated values were then extrapolated to determine total ligand bound at the 10 nM, 100 nM and 1000 nM R1881 concentrations. Results were expressed as the mean total pmole bound R1881/mg AR-LBD protein (±SEM).

PC3 cells = experiment: cAMP assay in PC3 cells; format: cell-based
Protocol: (§4) PC3 and LNCaP cells were seeded in 12-well plates at a density of 1.5×10^5 cells/well. The next day, cells were gently washed three times with serum-free media to remove excess FBS and grown for a further 24 hours in the absence of serum. Cells were then stimulated with various concentrations of DA for 15 minutes or 5-HT for 10 minutes at 37° C. Cells were lysed and intracellular cAMP levels were determined using the cAMP Biotrak Enzymeimmunoassay System (Amersham Biosciences) following the manufacturer's instructions. Assays were performed in triplicate with two independent trials.

LNCaP cells [7] = experiment: cAMP assay in LNCaP cells; format: cell-based, human; conditions: all concentrations; DA 15 minutes, 5-HT 10 minutes
Protocol: as §4

[8] = presence of hormone (0.1 nM R1881)

NNCc1cccc(O)c1 [NSD-1015, 3-hydroxybenzylhydrazine]
decrease in cell growth (C4-2 cells; absence of hormone): 1.20 fold | decline in cell growth (C4-2 cells; [8]): 1.24 fold | reduction of DA levels (DDC [1]): 2.6 fold | secreted DA level (DDC [1]): 3561±2032 pg/mL CM | secreted DA level (DDC [2]): 220±85 pg/mL CM | decrease in cell growth (LNCaP cells [3]; absence of hormone): 1.43 fold | decline in cell growth (LNCaP cells [3]; [8]): 1.15 fold

C[C@]1(O)CC[C@H]2[C@@H]3CCC4=CC(=O)CCC4=C3C=C[C@@]21C [R1881]
minimum concentration required for activation of AR transcription (AR [4]): 0.1 nM | minimum concentration required for activation of AR transcription (AR [5]; PC3 cells transfected with AR, 24 hours): 0.1 nM | amount of R1881 required to reach the control Bmax (AR [6]; presence of DDC (overexpression)): 0.56 nM | R1881 concentration at which control Bmax occurred (AR [6]; vector control): 1 nM | available ligand bound to AR-LBD (ligand-binding efficiency) (AR ligand binding domain; 20 nM [3H]-R1881, absence and presence of His-DDC): about 5% | ligand-binding efficiency (AR ligand binding domain; 100 nM R1881, absence of DDC): 14% | total available ligand bound to AR-LBD (AR ligand binding domain; 100 nM R1881, with His-DDC): 24.5% | ligand-binding efficiency (AR ligand binding domain; 1000 nM R1881, absence of DDC): 54% | total available ligand bound to AR-LBD (AR ligand binding domain; 1000 nM R1881, with His-DDC): 92% | R1881 concentration required to 50% saturate total AR-LBD protein (AR ligand binding domain; absence of His-DDC): 883 nM | R1881 concentration required to 50% saturate total AR-LBD protein (AR ligand binding domain; presence of His-DDC (0.5 μg/assay)): 425 nM | bound R1881 (AR ligand binding domain; tracer 20 nM [3H]-R1881, AR-LBD control): 895±93 pmole bound R1881/mg AR-LBD | bound R1881 (AR ligand binding domain; tracer 20 nM [3H]-R1881, AR-LBD+His-DDC): 937±111 pmole bound R1881/mg AR-LBD

NCCc1ccc(O)c(O)c1 [DA, dopamine]
increase in intracellular cAMP versus untreated cells (PC3 cells; maximum 200 μM concentration, 15 minutes): ~52 fold | repression of ligand-dependent AR transcription (AR [5]; highest 200 μM concentration, 1 nM R1881, 24 hours): 2.2 fold | ligand-independent activation of AR (AR [5]; without R1881, 24 hours): not affected | intracellular cAMP response (LNCaP cells [7]): did not induce a significant cAMP response

NCCc1c[nH]c2ccc(O)cc12 [5-HT, 5-hyroxytyrptamine]
intracellular cAMP response (PC3 cells; 5-HT 10 minutes): did not increase cAMP levels | AR activity in the absence or presence of ligand (AR [5]; 0-100 nM, with or without 1 nM R1881, 24 hours): did not alter AR activity | intracellular cAMP response (LNCaP cells [7]): did not increase cAMP levels
